The values that follow come from publication PMC6656724 (Communications Biology, 2019).

In general, IC50 refers to the concentration that inhibits the measured activity by half.

In experiment [1] the target is T1, Homo sapiens KMO (HsKMO) (Homo sapiens, UniProt O15229).
T1 construct: GST; made in house
Nature of the experiment: KMO inhibition assay, NADPH oxidation at 340 nm (HsKMO). It counts as biochemical. The source says: (§1) A combination of ligand- and structural-based virtual screening approaches (see supporting information for details) was used to identify an initial library of >1000 compounds that may be suitable as potential KMO inhibitors. These compounds were screened for inhibition of Pseudomonas fluorescens KMO (PfKMO) and Homo sapiens KMO (HsKMO) using high-throughput assays by monitoring the time-dependent oxidation of NADPH at 340 nm[23].
(§2) Small-molecule compounds were supplied by Biofocus (Charles River Laboratories International Inc., MA, USA), which were identified in silico as potential inhibitors (further details are described in the Supplementary Methods). Initial inhibition assays were performed against Pseudomonas fluorescens KMO (PfKMO) and Homo sapiens KMO (HsKMO) by monitoring the time-dependent absorbance change of NADPH at 340 nm. Purified KMO protein (200 nM) was incubated in 100 µL reaction buffer (20 mM potassium phosphate pH 8.0, 7 mM 2-mercaptoethanol) containing 100 μM NADPH, 100 μM L-Kyn and 20 μM potential inhibitors in 96-well plates. […] The inhibitors identified in the initial screens were validated and re-assayed individually in a 1 cm path-length quartz micro cuvette. […] Suppliers for target inhibitor compounds are listed in Supplementary Table 11.
Supplementary Figure 1. Examples of inhibition data used to generate IC50 values for selected KMO inhibitors.
NADPH (100µM) were added into reaction buffer (HsKMO: 20mM potassium phosphate pH 8.0, 7 mM 2-mercaptoethanol; PfKMO: 20 mM HEPES, 10mM sodium acetate, pH 7.5, 2mM DTT). The reaction was initiated by the addition of KMO enzyme (HsKMO: 0.5µM; PfKMO: 0.1 µM). KMO activity was measured in the presence of a range of inhibitor concentrations. […]
(§3) 3.5 Steady-state enzymatic assays.
(§4) Initial screening assays and determination of IC50 values for each potential inhibitor compound were carried out using either 0.1 µM PfKMO or 0.5 µM HsKMO at fixed […]
(§5) (HsKMO: 20 mM potassium phosphate pH 8.0, 7 mM 2-mercaptoethanol; PfKMO:
(§6) 20 mM HEPES, 10 mM sodium acetate, pH 7.5, 2 mM DTT). KMO activity was measured in the presence of a range of inhibitor concentrations by monitoring the […]
consumption of NADPH at 340 nm upon addition of enzyme via a Cary 50 UV-Vis spectrophotometer (Agilent Technologies). Rates were determined from linear regression fits to the initial linear portion of the curves. All measurements were performed in triplicate. The IC50 values for inhibitors were obtained by plotting the percentage inhibition versus the inhibitor concentration and fitting to the Morrison equation16 (equation 1) using Origin 9.0 Software (OriginLab, Northampton, MA).
E + I + K!"" − E + I + K!"" ! − 4[E][I] where v0 is the enzyme activity without inhibitor, vi is the enzyme activity with ligand

In experiment [2] the target is T2, Pseudomonas fluorescens KMO (PfKMO) (Pseudomonas fluorescens, UniProt Q84HF5, C252S/C461S).
T2 construct: made in house; host or cells: E. coli BL21 (DE3)
T2 sequence (Q84HF5 whole entry C252S/C461S): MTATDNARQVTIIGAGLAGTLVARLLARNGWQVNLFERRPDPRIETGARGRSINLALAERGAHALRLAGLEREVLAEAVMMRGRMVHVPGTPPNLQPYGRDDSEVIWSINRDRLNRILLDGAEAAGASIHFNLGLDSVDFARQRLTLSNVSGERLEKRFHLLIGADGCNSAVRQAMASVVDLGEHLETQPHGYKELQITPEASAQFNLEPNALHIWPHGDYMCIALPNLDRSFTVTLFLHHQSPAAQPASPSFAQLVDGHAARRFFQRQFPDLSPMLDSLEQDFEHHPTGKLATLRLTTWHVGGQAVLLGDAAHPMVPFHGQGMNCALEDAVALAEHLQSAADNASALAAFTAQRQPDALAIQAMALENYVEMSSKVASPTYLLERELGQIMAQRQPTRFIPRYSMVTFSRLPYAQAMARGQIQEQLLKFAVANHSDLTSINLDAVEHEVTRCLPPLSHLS
Briefly: biochemical.
Excerpt: as §1, §2
Supplementary Figure 1. Examples of inhibition data used to generate IC50 values for selected KMO inhibitors. Fixed concentration of L -KYN (200 µM) and NADPH (100µM) were added into reaction buffer (HsKMO: 20mM potassium phosphate pH 8.0, 7 mM 2-mercaptoethanol; PfKMO: 20 mM HEPES, 10mM sodium acetate, pH 7.5, 2mM DTT). The reaction was initiated by the addition of KMO enzyme (HsKMO: 0.5µM; PfKMO: 0.1 µM). KMO activity was measured in the presence of a range of inhibitor concentrations. […]
as §3, §4, §5, §6
consumption of NADPH at 340 nm upon addition of enzyme via a Cary 50 UV-Vis spectrophotometer (Agilent Technologies). Rates were determined from linear regression fits to the initial linear portion of the curves. All measurements were performed in triplicate. The IC50 values for inhibitors were obtained by plotting the percentage inhibition versus the inhibitor concentration and fitting to the Morrison equation16 (equation 1) using Origin 9.0 Software (OriginLab, Northampton, MA). […]

T1 sequence (O15229 whole entry): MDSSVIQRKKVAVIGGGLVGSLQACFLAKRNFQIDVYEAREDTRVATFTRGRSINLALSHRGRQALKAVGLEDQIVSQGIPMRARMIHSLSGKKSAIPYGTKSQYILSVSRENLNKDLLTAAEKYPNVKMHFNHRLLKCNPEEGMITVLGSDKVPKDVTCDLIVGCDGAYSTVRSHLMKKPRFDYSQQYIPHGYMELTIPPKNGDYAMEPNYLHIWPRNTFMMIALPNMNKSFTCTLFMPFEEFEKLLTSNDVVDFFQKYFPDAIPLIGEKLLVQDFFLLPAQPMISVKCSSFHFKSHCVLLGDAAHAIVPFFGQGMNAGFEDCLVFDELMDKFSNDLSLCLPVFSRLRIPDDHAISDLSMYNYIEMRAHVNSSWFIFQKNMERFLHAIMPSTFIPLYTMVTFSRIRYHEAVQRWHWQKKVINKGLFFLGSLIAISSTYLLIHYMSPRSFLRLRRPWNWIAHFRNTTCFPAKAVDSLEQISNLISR

On to `O=C(O)CCc1ccc(-c2cccs2)n1-c1ccc(Br)cc1` [compound 2, 3-[1-(4-bromophenyl)-5-(2-thienyl)-1H-pyrrol-2-yl] propanoic acid], for which the IC50 was 1.5 µM in experiment [1] and 130 ± 18.7 µM in experiment [2]. On to `Cc1ccc2c(c1)cc(C(=O)N[C@@H](C(=O)O)c1ccccc1)n2C` [compound 7, (R)-2-(1,5-dimethyl-1H-indole-2-carboxamido)-2-phenylacetic acid], for which the results for the IC50 in experiment [1] and in experiment [2] were 21.3 µM and 101 ± 9.1 µM, respectively. In the case of `O=C(Nc1ccccc1C(=O)O)c1ccc(-c2ccc(Cl)cc2Cl)o1` [compound 10, 2-(5-(2,4-dichlorophenyl)furan-2-carboxamido)benzoic acid], the IC50 in experiment [1] was 1.6 µM; in experiment [2] it was 3 ± 0.1 µM. As for `O=C(O)c1ccc(-c2ccccc2C(F)(F)F)o1` [compound 11, 5-[2-(trifluoromethyl)phenyl]furan-2-carboxylic acid], the IC50 in experiment [1] is 144 µM; in experiment [2], 72.1 ± 1.9 µM. Taken in the same sequence, the figures for `O=C(O)c1ccc(-c2cc(C(F)(F)F)ccc2Cl)o1` [compound 12, 5-[2-chloro-5-(trifluoromethyl)phenyl]furan-2-carboxylic acid] were 31.8 µM and 54 ± 1.6 µM.

Consider `CC(C)n1c(CCC(=O)O)ccc1-c1ccc(Cl)cc1` [compound 14, 3-[5-(4-chlorophenyl)-1-(methylethyl)pyrrol-2-yl]propanoic acid], for which the IC50 in experiment [1] was 38.8 µM.
